Experimental data taken from patent US20090182003A1, “Methods and Compositions for Treatment Cell Proliferative Disorders” (President and Fellows of Harvard College, priority 2006, published 2009).
pIC50: −log10 of the molar value.

How the values were obtained:
FL5.12 cells = test: Growth inhibition of hematopoietic cell line FL5.12; assay type: cell-based; conditions: 0.1, 1, 10 and 100 μM, 24 hours, in the presence of IL-3, Coulter cell count
Protocol: Hematopoietic cell line FL5.12 cells were seed at equal density and grown in the presence of IL-3, a growth factor. Cells were then treated for 24 hours with 0.1, 1, 10 and 100 μM resveratrol. Cells were counted with a Coulter particle counter to determine cell inhibition by resveratrol.

PKC = test: Kinase panel screen, PKC; conditions: concentration of 20 micromolar
Rsk2 = Rsk2 (Homo sapiens, UniProt P51812); test: Kinase panel screen, Rsk2; assay type: biochemical; conditions: 20 μM resveratrol
NLK = molecular target: T1, NLK (Homo sapiens, UniProt Q9UBE8); test: Kinase panel screen, NLK; assay type: biochemical; conditions: 10 μM ATP; 0.01-100 μM resveratrol
T1 sequence (Q9UBE8 1-527): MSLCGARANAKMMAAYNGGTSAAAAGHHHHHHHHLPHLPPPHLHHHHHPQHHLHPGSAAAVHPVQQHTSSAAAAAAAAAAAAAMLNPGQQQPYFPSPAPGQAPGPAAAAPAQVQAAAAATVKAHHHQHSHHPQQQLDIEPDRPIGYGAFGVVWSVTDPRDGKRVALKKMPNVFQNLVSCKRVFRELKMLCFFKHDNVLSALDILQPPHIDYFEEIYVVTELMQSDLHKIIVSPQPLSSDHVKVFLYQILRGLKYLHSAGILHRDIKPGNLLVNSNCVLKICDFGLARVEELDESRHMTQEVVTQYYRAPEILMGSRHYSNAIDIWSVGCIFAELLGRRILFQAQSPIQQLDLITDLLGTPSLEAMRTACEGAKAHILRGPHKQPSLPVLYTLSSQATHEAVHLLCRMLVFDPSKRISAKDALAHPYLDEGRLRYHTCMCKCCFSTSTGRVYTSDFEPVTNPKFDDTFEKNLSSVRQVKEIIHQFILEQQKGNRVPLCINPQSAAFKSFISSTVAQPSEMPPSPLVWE

PI3K = test: Kinase panel screen, PI3K; conditions: concentrations up to 20 micromolar
human pim-2 = human pim-2 (Homo sapiens, UniProt Q9P1W9); test: Kinase panel screen, Pim-2; assay type: biochemical; conditions: kinase reaction with 10 or 100 μM ATP
human p70S6K = human p70S6K (Homo sapiens, UniProt P23443); test: Kinase panel screen, p70S6K; assay type: biochemical; conditions: 10 or 100 μM ATP; 0.01-100 μM resveratrol
Src = Src (Homo sapiens, UniProt P12931); test: Kinase panel screen, Src; assay type: biochemical; conditions: concentration of 20 micromolar
human JAK2 = human JAK2 (Homo sapiens, UniProt O60674); test: Kinase panel screen, JAK2; assay type: biochemical; conditions: kinase reaction with 10 or 100 μM ATP
human JAK2, sequence (O60674 whole entry): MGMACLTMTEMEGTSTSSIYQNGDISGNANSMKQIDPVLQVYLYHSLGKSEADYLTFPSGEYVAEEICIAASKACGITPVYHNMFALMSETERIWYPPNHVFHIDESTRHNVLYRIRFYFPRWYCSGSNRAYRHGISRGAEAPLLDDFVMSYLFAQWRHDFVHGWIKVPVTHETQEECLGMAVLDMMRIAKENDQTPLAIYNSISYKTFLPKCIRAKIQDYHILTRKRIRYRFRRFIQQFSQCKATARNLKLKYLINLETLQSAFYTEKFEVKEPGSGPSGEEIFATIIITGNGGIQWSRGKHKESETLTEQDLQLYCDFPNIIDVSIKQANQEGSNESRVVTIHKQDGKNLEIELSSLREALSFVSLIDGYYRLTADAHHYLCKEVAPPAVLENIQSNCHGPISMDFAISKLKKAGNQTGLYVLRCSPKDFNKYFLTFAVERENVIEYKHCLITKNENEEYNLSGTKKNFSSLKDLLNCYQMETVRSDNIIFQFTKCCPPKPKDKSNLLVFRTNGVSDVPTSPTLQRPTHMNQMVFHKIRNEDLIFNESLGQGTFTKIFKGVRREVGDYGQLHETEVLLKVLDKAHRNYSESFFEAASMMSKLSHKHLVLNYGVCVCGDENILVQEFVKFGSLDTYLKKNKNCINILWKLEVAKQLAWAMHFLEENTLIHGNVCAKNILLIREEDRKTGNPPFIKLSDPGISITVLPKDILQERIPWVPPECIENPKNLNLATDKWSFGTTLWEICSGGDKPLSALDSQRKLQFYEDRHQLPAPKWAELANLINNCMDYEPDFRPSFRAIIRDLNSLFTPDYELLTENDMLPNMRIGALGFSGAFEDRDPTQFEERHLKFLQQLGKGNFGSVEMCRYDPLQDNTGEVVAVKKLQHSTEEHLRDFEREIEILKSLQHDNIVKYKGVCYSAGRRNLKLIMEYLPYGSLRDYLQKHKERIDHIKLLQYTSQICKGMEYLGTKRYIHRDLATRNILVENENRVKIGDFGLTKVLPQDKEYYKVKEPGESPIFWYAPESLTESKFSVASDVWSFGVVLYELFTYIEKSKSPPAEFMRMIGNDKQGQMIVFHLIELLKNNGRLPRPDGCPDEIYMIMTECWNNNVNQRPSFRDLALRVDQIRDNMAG

human pim-2, sequence (Q9P1W9 whole entry): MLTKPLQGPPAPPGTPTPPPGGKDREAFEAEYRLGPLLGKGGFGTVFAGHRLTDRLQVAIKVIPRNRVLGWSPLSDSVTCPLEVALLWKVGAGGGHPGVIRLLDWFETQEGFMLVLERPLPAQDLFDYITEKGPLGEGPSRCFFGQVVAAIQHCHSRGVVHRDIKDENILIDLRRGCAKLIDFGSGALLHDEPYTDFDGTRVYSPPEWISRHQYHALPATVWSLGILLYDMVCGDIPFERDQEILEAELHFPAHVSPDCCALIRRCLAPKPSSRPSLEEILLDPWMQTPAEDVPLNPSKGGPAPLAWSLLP
Src, sequence (P12931 whole entry, species assumed): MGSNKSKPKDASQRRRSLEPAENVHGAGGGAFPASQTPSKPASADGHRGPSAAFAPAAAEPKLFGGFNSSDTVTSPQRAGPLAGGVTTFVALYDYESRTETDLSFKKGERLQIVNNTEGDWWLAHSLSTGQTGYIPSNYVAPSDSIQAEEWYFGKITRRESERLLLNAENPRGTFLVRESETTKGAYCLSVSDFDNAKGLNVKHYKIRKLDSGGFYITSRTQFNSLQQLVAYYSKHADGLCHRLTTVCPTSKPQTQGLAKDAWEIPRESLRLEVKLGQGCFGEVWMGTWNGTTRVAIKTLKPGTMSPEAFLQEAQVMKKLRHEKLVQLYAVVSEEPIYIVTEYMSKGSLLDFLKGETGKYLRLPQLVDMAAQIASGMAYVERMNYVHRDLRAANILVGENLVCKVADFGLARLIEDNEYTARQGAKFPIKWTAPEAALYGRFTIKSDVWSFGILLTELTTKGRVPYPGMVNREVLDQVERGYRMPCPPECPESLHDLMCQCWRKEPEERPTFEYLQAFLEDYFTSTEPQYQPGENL
Rsk2, sequence (P51812 whole entry): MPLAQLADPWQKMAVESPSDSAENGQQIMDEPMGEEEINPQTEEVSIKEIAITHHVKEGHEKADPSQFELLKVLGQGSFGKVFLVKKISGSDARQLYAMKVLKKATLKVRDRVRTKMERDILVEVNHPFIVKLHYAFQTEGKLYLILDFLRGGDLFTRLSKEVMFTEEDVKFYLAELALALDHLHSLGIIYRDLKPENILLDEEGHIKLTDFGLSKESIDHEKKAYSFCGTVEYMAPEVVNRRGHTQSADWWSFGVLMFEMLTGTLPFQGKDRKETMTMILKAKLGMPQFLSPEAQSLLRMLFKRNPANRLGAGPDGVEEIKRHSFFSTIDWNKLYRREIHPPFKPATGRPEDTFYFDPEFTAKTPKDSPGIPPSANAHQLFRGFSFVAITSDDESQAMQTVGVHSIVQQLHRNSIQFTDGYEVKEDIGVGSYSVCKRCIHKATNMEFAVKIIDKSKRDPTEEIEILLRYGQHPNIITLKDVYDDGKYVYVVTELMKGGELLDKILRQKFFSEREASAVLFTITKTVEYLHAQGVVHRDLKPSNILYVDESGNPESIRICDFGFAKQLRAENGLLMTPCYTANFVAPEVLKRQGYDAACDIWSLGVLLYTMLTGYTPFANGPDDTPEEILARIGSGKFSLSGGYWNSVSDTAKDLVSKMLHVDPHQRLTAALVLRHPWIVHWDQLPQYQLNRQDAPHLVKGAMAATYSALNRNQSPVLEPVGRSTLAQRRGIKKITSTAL
human p70S6K, sequence (P23443 whole entry): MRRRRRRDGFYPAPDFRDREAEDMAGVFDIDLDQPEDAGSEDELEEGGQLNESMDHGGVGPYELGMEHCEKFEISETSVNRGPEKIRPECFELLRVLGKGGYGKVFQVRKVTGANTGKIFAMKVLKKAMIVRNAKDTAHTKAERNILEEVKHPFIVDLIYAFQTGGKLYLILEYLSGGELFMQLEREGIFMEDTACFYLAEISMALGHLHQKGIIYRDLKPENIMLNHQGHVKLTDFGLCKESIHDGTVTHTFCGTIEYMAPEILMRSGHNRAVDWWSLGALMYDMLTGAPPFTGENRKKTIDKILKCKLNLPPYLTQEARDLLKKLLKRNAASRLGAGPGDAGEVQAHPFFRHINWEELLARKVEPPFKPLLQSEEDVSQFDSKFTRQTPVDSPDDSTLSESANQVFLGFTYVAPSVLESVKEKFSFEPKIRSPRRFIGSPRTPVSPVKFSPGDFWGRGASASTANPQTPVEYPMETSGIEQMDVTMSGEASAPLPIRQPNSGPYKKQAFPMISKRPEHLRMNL

- inhibition at 20 µM (Rsk2): ~68%
- Inhibition of NLK (in words) (NLK): specific inhibitor
- Inhibition of PI3K (in words) (PI3K): no inhibition
- pIC50 (human pim-2): 5.83
- Inhibition of p70S6K (in words) (human p70S6K): specific inhibitor
- pIC50 (human JAK2): 5.83
Compound: Oc1ccc(C=Cc2cc(O)cc(O)c2)cc1 [resveratrol, 3,5, 4′-trihydroxystilbene]
- Inhibition of FL5.12 cell growth (in words) (FL5.12 cells): dose dependent inhibition
- Inhibition of PKC (in words) (PKC): either not inhibited or only weakly inhibited
- Inhibition of Src (in words) (Src): either not inhibited or only weakly inhibited
